Results as given in patent publication US20080058409A1, “Esterified Catechins, Processes for Producing the Same, and Foods and Beverages as well as Cosmetics Containing Such Esterified Catechins” (priority 2005, published 2008).

Experiments:
Bacillus subtilis spores = experiment: Assay of antibacterial activity (growth inhibition, absorbance at 690 nm) against Bacillus subtilis spores; format: cell-based; details: spores 1×10^7/ml, nutrient broth pH 7.0, cultured overnight at 37° C., percent growth inhibition from absorbance at 690 nm
Method: (§1) Into each well, 50 μl of a nutrient broth (pH 7.0, NISSUI PHARMACEUTICAL CO., LTD.) was added and cultured overnight at 37° C. The light absorbance at 690 nm was measured both at the start and end of the culture by means of a micro-plate reader (Thermolab Systems, Finland). Based on the percent growth inhibition calculated from the following formula, a distribution diagram was constructed plotting percent inhibition and sample concentration on the two axes and the 50% inhibition (IC50) of the spore forming bacterium by the substances of the present invention was determined. Percent growth inhibition (%)=100×{Δ690 (not added)−Δ690 (sample added)}/Δ690 (not added) where Δ690 (not added) refers to the difference between the 690 nm values in the “not-added” group before and after the culture and Δ690 (sample added) refers to the difference between the 690 nm values in the “sample-added” group before and after the culture.

[1] = tested on: Alicyclobacillus acidoterrestris; experiment: Assay of antibacterial activity (growth inhibition) against heat-resistant acidophilic spore-forming bacterium Alicyclobacillus acidoterrestris; format: cell-based; details: culture temperature 45° C., liquid medium (yeast extract, soluble starch, glucose) adjusted to pH 3.8
Method: as §1
Activity against the heat-resistant acidophilic spore-forming bacterium Alicyclobacillus acidoterrestris was determined by taking the same procedure, except that a change was made in two points, the culture temperature condition and the type of liquid medium [culture temperature: 45° C.; liquid medium: 0.4% dry yeast extract (Difco Laboratories), 0.4% soluble starch (nacalai tesque), 1% glucose (nacalai tesque), adjusted to pH 3.8 with 1 N sulfuric acid].

Compound	IC50 (ppm) B. subtilis (Bacillus subtilis spores)	IC50 (ppm) A. acidoterrestris [1]
CCCCCCCC(=O)Oc1cc(O)cc2c1C[C@H](OC(=O)CCCCCCC)[C@@H](c1ccc(O)c(O)c1)O2 [3,5-di-O-octanoyl-(+)-D-catechin]	100-200 ppm	50-100 ppm
CCCCCCCC(=O)Oc1ccc([C@H]2Oc3cc(O)cc(O)c3C[C@@H]2O)cc1OC(=O)CCCCCCC [3′4′-O-dioctanoyl-(+)-D-catechin]	>400 ppm	12.5-25 ppm
Sucrose fatty acid ester [reference compound]	50-100 ppm	100-200 ppm
Catechin [reference compound]	>400 ppm	50-100 ppm
CCCCCCCC(=O)Oc1cc(OC(=O)CCCCCCC)c2c(c1)O[C@H](c1ccc(O)c(O)c1)[C@@H](O)C2 [5,7-di-O-octanoyl-(+)-D-catechin]	>400 ppm	100-200 ppm
3′-O-cotanoyl and 4′-octanoyl-(+)-D-catechin	200-400 ppm	25-50 ppm
3′(or 4′),7-di-O-octanoyl-(+)-D-catechin	6.25-12.5 ppm	50-100 ppm
3′(or 4′),5-di-O-octanoyl-(+)-D-catechin	6.25-12.5 ppm	6.25-12.5 ppm
CCCCCCCC(=O)Oc1cc(O)c2c(c1)O[C@H](c1ccc(O)c(O)c1)[C@@H](OC(=O)CCCCCCC)C2 [3,7-di-O-octanoyl-(+)-D-catechin]	25-50 ppm	12.5-25 ppm
3′(or 4′),3-di-O-octanoyl-(+)-D-catechin	3.125-6.25 ppm	6.25-12.5 ppm
